Peptide text beside a SMILES is read from it.
Assays:
Assay type in all cases: biochemical
HDAC2 [1] = target: T1, HDAC2 (Homo sapiens, UniProt Q92769); assay: HDAC2 inhibition, full IC50 measurement (Reaction Biology; fluorogenic p53 peptide RHKK(Ac)AMC)
T1 construct: purchased Reaction Biology Corporation (assay run by the CRO)
How it was run: (§1)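 Test peptides were dispensed acoustically with enzyme in 50 mM Tris-HCl pH 8.0, 137 mM NaCl, 2.7 mM KCl, 1 mM MgCl2, 1 mg/ml BSA and 1% DMSO. After adding 50 μM RHKK(Ac)AMC, reactions ran 1 h at 30 °C, then developer was added.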

HDAC3 = target: T2, HDAC3 (Homo sapiens, UniProt O15379); assay: HDAC3 inhibition, full IC50 measurement (Reaction Biology; fluorogenic p53 peptide RHKK(Ac)AMC)
T2 construct: purchased Reaction Biology Corporation (assay run by the CRO)
How it was run: as §1

HDAC2 [2] = target: T1, HDAC2; assay: Initial HDAC2 IC50 estimate (BPS Biosciences HDAC fluorogenic assay kit); settings: Supplementary Dataset 2; read-out: HDAC2 activity (initial activity)
How it was run: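 Inhibition measured by kit-based fluorogenic HDAC activity assays, with each point in duplicate or triplicate. Values come from a full 1 µM–100 pM series (1:10 steps) or are range estimates from just 20 nM and 200 nM.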

HDAC8 = target: T3, HDAC8 (Homo sapiens, UniProt Q9BY41); assay: HDAC8 inhibition, full IC50 measurement (Reaction Biology; fluorogenic p53 peptide RHKK(Ac)AMC); settings: t1/t2 replicates
T3 construct: purchased Reaction Biology Corporation (assay run by the CRO)
T3 sequence (Q9BY41 1-377): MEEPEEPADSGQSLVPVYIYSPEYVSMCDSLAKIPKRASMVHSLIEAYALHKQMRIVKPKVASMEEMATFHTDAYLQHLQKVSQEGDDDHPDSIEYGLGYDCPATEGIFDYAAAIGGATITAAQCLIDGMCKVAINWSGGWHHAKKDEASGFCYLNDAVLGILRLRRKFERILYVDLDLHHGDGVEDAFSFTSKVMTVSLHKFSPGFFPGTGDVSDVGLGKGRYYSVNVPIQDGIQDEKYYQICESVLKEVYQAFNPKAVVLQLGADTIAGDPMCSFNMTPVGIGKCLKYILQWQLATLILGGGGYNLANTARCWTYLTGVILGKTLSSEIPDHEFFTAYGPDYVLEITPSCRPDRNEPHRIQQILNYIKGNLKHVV
How it was run: as §1

HDAC1 = target: T4, HDAC1 (Homo sapiens, UniProt Q13547); assay: HDAC1 inhibition, full IC50 measurement (Reaction Biology; fluorogenic p53 peptide RHKK(Ac)AMC); settings: t1/t2 replicates
T4 construct: purchased Reaction Biology Corporation (assay run by the CRO)
How it was run: as §1

[3] = peptide conc. 1.00E-05 M, listed as des3.1.0_t1
[4] = peptide conc. 1.00E-05 M, listed as des3.1.0_t2
[5] = peptide conc. 1.11E-06 M, listed as des3.1.0_t1
[6] = peptide conc. 1.11E-06 M, listed as des3.1.0_t2
[7] = peptide conc. 1.23E-07 M, listed as des3.1.0_t1
[8] = peptide conc. 1.23E-07 M, listed as des3.1.0_t2
[9] = peptide conc. 1.37E-08 M, listed as des3.1.0_t1
[10] = peptide conc. 1.37E-08 M, listed as des3.1.0_t2
[11] = peptide conc. 1.52E-09 M, listed as des3.1.0_t1
[12] = peptide conc. 1.52E-09 M, listed as des3.1.0_t2
[13] = peptide conc. 3.33E-06 M, listed as des3.1.0_t1
[14] = peptide conc. 3.33E-06 M, listed as des3.1.0_t2
[15] = peptide conc. 3.70E-07 M, listed as des3.1.0_t1
[16] = peptide conc. 3.70E-07 M, listed as des3.1.0_t2
[17] = peptide conc. 4.12E-08 M, listed as des3.1.0_t1
[18] = peptide conc. 4.12E-08 M, listed as des3.1.0_t2
[19] = peptide conc. 4.57E-09 M, listed as des3.1.0_t1
[20] = peptide conc. 4.57E-09 M, listed as des3.1.0_t2
[21] = peptide conc. 5.08E-10 M, listed as des3.1.0_t1
[22] = peptide conc. 5.08E-10 M, listed as des3.1.0_t2

T2 sequence (O15379 whole entry): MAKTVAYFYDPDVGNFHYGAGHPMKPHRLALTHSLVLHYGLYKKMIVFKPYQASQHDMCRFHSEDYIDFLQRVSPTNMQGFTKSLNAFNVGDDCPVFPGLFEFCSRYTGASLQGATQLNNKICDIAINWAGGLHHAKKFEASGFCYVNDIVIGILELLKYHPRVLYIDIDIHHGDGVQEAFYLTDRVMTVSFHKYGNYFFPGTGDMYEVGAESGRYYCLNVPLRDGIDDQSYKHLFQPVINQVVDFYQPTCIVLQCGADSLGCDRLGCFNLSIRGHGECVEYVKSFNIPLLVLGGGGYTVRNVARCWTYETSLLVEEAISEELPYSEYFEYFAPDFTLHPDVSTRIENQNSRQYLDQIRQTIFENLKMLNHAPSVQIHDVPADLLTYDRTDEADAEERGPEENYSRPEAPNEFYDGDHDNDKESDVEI
T2 sequence (Q9Y618 395-489 partner limits assumed): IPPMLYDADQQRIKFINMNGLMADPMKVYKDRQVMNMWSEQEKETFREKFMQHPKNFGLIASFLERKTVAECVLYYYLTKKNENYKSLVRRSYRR
T1 sequence (Q92769 whole entry): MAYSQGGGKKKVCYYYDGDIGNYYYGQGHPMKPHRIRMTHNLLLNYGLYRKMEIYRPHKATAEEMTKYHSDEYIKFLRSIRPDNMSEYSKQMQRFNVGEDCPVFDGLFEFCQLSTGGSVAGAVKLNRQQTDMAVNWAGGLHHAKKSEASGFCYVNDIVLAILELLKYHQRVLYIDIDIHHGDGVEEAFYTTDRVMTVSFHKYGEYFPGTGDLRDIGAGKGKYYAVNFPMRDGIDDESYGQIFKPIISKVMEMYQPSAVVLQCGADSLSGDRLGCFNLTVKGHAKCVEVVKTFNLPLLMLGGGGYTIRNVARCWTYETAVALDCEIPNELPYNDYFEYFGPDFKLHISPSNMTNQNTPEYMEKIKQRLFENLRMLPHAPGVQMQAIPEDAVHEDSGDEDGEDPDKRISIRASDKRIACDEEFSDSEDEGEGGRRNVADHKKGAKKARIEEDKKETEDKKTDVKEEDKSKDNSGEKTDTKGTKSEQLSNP
T4 sequence (Q13547 whole entry): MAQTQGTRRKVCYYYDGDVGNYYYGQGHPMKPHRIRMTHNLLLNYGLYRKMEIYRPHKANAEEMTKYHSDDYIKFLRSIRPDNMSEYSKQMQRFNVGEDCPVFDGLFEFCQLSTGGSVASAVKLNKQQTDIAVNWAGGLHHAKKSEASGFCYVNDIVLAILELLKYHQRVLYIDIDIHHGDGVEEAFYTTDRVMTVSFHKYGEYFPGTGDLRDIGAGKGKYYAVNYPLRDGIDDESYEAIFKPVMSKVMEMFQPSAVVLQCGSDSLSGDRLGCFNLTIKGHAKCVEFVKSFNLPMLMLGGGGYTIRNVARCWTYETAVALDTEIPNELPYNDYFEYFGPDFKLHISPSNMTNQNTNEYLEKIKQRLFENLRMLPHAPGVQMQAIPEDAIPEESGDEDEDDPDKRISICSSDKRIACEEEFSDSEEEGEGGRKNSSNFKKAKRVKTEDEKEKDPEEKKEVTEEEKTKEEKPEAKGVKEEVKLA

SMILES: N=C(N)NCCC[C@H]1NC(=O)[C@@H]2CCCN2C(=O)[C@H](CO)NC(=O)[C@@H](Cc2c[nH]cn2)NC(=O)[C@H](CCCCCS)NC(=O)[C@H](CCCCN)NC(=O)[C@H](Cc2ccc(O)cc2)NC(=O)[C@H]2CCCN2C(=O)[C@@H](CCC(N)=O)NC1=O [des3.1.0, SHA-dHis-Ser-Pro-dArg-dGln-dPro-Tyr-Lys] (HELM PEPTIDE1{K.[O=C([C@H](CCCCCS)N[*:1])[*:2]].[dH].S.P.[dR].[dQ].[dP].Y}$PEPTIDE1,PEPTIDE1,1:R1-9:R2$$$V2.0)
- HDAC2 activity raw data (signal) (HDAC2 [1]; Conc. 1.00E-05 M, t1): 59408
- HDAC2 activity raw data (signal) (HDAC2 [1]; Conc. 1.00E-05 M, t2): 72667
- HDAC2 activity raw data (signal) (HDAC2 [1]; Conc. 1.11E-06 M, t1): 433904
- HDAC2 activity raw data (signal) (HDAC2 [1]; Conc. 1.11E-06 M, t2): 343376
- HDAC2 activity raw data (signal) (HDAC2 [1]; Conc. 1.23E-07 M, t1): 657996
- HDAC2 activity raw data (signal) (HDAC2 [1]; Conc. 1.23E-07 M, t2): 873444
- HDAC2 activity raw data (signal) (HDAC2 [1]; Conc. 1.37E-08 M, t1): 729280
- HDAC2 activity raw data (signal) (HDAC2 [1]; Conc. 1.37E-08 M, t2): 826208
- HDAC2 activity raw data (signal) (HDAC2 [1]; Conc. 1.52E-09 M, t1): 589537
- HDAC2 activity raw data (signal) (HDAC2 [1]; Conc. 1.52E-09 M, t2): 821627
- HDAC2 activity raw data (signal) (HDAC2 [1]; Conc. 3.33E-06 M, t1): 217345
- HDAC2 activity raw data (signal) (HDAC2 [1]; Conc. 3.33E-06 M, t2): 176595
- HDAC2 activity raw data (signal) (HDAC2 [1]; Conc. 3.70E-07 M, t1): 565181
- HDAC2 activity raw data (signal) (HDAC2 [1]; Conc. 3.70E-07 M, t2): 599514
- HDAC2 activity raw data (signal) (HDAC2 [1]; Conc. 4.12E-08 M, t1): 715436
- HDAC2 activity raw data (signal) (HDAC2 [1]; Conc. 4.12E-08 M, t2): 918076
- HDAC2 activity raw data (signal) (HDAC2 [1]; Conc. 4.57E-09 M, t1): 697486
- HDAC2 activity raw data (signal) (HDAC2 [1]; Conc. 4.57E-09 M, t2): 737052
- HDAC2 activity raw data (signal) (HDAC2 [1]; Conc. 5.08E-10 M, t1): 616136
- HDAC2 activity raw data (signal) (HDAC2 [1]; Conc. 5.08E-10 M, t2): 674996
- HDAC3 activity raw data (signal) (HDAC3; Conc. 1.00E-05 M, t1): 46436
- HDAC3 activity raw data (signal) (HDAC3; Conc. 1.00E-05 M, t2): 68834
- HDAC3 activity raw data (signal) (HDAC3; Conc. 1.11E-06 M, t1): 407446
- HDAC3 activity raw data (signal) (HDAC3; Conc. 1.11E-06 M, t2): 414242
- HDAC3 activity raw data (signal) (HDAC3; Conc. 1.23E-07 M, t1): 842197
- HDAC3 activity raw data (signal) (HDAC3; Conc. 1.23E-07 M, t2): 849517
- HDAC3 activity raw data (signal) (HDAC3; Conc. 1.37E-08 M, t1): 932057
- HDAC3 activity raw data (signal) (HDAC3; Conc. 1.37E-08 M, t2): 998355
- HDAC3 activity raw data (signal) (HDAC3; Conc. 1.52E-09 M, t1): 936917
- HDAC3 activity raw data (signal) (HDAC3; Conc. 1.52E-09 M, t2): 1040178
- HDAC3 activity raw data (signal) (HDAC3; Conc. 3.33E-06 M, t1): 127237
- HDAC3 activity raw data (signal) (HDAC3; Conc. 3.33E-06 M, t2): 217535
- HDAC3 activity raw data (signal) (HDAC3; Conc. 3.70E-07 M, t1): 580195
- HDAC3 activity raw data (signal) (HDAC3; Conc. 3.70E-07 M, t2): 672322
- HDAC3 activity raw data (signal) (HDAC3; Conc. 4.12E-08 M, t1): 931839
- HDAC3 activity raw data (signal) (HDAC3; Conc. 4.12E-08 M, t2): 959771
- HDAC3 activity raw data (signal) (HDAC3; Conc. 4.57E-09 M, t1): 999086
- HDAC3 activity raw data (signal) (HDAC3; Conc. 4.57E-09 M, t2): 1037845
- HDAC3 activity raw data (signal) (HDAC3; Conc. 5.08E-10 M, t1): 932822
- HDAC3 activity raw data (signal) (HDAC3; Conc. 5.08E-10 M, t2): 1013267
- IC50 (HDAC2 [2]): 1.4 µM
- HDAC8 activity raw data (signal) (HDAC8; [3]): 177071
- HDAC8 activity raw data (signal) (HDAC8; [4]): 217357
- HDAC8 activity raw data (signal) (HDAC8; [5]): 702584
- HDAC8 activity raw data (signal) (HDAC8; [6]): 678372
- HDAC8 activity raw data (signal) (HDAC8; [7]): 829409
- HDAC8 activity raw data (signal) (HDAC8; [8]): 942877
- HDAC8 activity raw data (signal) (HDAC8; [9]): 914161
- HDAC8 activity raw data (signal) (HDAC8; [10]): 1065224
- HDAC8 activity raw data (signal) (HDAC8; [11]): 932207
- HDAC8 activity raw data (signal) (HDAC8; [12]): 1002240
- HDAC8 activity raw data (signal) (HDAC8; [13]): 396779
- HDAC8 activity raw data (signal) (HDAC8; [14]): 364112
- HDAC8 activity raw data (signal) (HDAC8; [15]): 821171
- HDAC8 activity raw data (signal) (HDAC8; [16]): 831364
- HDAC8 activity raw data (signal) (HDAC8; [17]): 888545
- HDAC8 activity raw data (signal) (HDAC8; [18]): 997244
- HDAC8 activity raw data (signal) (HDAC8; [19]): 750196
- HDAC8 activity raw data (signal) (HDAC8; [20]): 946901
- HDAC8 activity raw data (signal) (HDAC8; [21]): 807432
- HDAC8 activity raw data (signal) (HDAC8; [22]): 990498
- HDAC1 activity raw data (signal) (HDAC1; [3]): 22305
- HDAC1 activity raw data (signal) (HDAC1; [4]): 40732
- HDAC1 activity raw data (signal) (HDAC1; [5]): 248828
- HDAC1 activity raw data (signal) (HDAC1; [6]): 188355
- HDAC1 activity raw data (signal) (HDAC1; [7]): 589648
- HDAC1 activity raw data (signal) (HDAC1; [8]): 563314
- HDAC1 activity raw data (signal) (HDAC1; [9]): 723592
- HDAC1 activity raw data (signal) (HDAC1; [10]): 777320
- HDAC1 activity raw data (signal) (HDAC1; [11]): 783325
- HDAC1 activity raw data (signal) (HDAC1; [12]): 856547
- HDAC1 activity raw data (signal) (HDAC1; [13]): 76346
- HDAC1 activity raw data (signal) (HDAC1; [14]): 86885
- HDAC1 activity raw data (signal) (HDAC1; [15]): 352482
- HDAC1 activity raw data (signal) (HDAC1; [16]): 387684
- HDAC1 activity raw data (signal) (HDAC1; [17]): 725312
- HDAC1 activity raw data (signal) (HDAC1; [18]): 693516
- HDAC1 activity raw data (signal) (HDAC1; [19]): 787632
- HDAC1 activity raw data (signal) (HDAC1; [20]): 874002
- HDAC1 activity raw data (signal) (HDAC1; [21]): 778120
- HDAC1 activity raw data (signal) (HDAC1; [22]): 831348
